# Paper PMC8413292, “Small-molecule polymerase inhibitor protects non-human primates from measles and reduces shedding” (Nature Communications, 2021)
# “And” between values parts separate entries of the source, which are not always exact repeats. Equal values may be shown once.
# Tested on: MV/FrankfurtMain.DEU/17.11 (genotype D8)
# Experiment: PBMC-associated viremia titers (limited dilution, TCID50/10^6 PBMCs)
# Type: in vivo, squirrel monkeys (Saimiri sciureus)
# Details: for Viral titers: individual animals
# Description: White blood cell counts, viral load quantification in PBMCs, and quantification of neutralizing antibody titers were performed as follows: for white blood cell counts, blood was diluted 1:100 in 3% acetic acid and cells were counted using a Neubauer chamber. For viral load quantification in PBMCs, blood was centrifuged at 3000 rpm for 15 min and serum was frozen at −20 °C until further use. Red blood cell lysis was performed and the remaining PBMCs were counted using a Neubauer chamber. Viral titers in PBMCs were quantified in quadruplicates using limited dilution method and calculated as TCID50/10^6 PBMCs. Neutralizing antibody titers were quantified by incubating MeV with 2-fold serial dilutions of the respective serum for 20 min at room temperature in quadruplicates. Vero/hSLAM cells were added and incubated for 3 days at 37 °C. Neutralizing antibody titers are expressed as the reciprocal of the highest serum dilution showing no signs of infection. For virus titration from throat swabs, swabs were placed in 150 μl DMEM with 3% penicillin/streptomycin and the titer was quantified by limited dilution method.
structure (smiles),measurement,setting,value
Cn1nc(C(F)(F)F)cc1C(=O)Nc1ccc(S(=O)(=O)N2CCCC[C@H]2CCN2CCOCC2)cc1 [ERDRP-0519],Viral titers,"prophylactic group, day 3",1.745 log10(TCID50/106 PBMCs)
same,Viral titers,"prophylactic group, day 7",1.509 log10(TCID50/106 PBMCs) and 0 log10(TCID50/106 PBMCs)
same,Viral titers,"prophylactic group, day 10",1.807 log10(TCID50/106 PBMCs)
same,Viral titers,"prophylactic group, day 17",0.7747 log10(TCID50/106 PBMCs)
same,Viral titers,"prophylactic group, day 21",2.352 log10(TCID50/106 PBMCs)
same,decrease of viremia titers on average compared to untreated animals,prophylactic treatment,up to 250 fold
same,"PBMC Titers, group mean (Mean 2)","prophylactic, Row 1 (1st of 7 time points)",0
same,"PBMC Titers, group mean (Mean 2)","prophylactic, Row 2 (2nd of 7 time points)",0.2908
same,"PBMC Titers, group mean (Mean 2)","prophylactic, Row 3 (3rd of 7 time points)",0.2514
same,"PBMC Titers, group mean (Mean 2)","prophylactic, Row 4 (4th of 7 time points)",0.3012
same,"PBMC Titers, group mean (Mean 2)","prophylactic, Row 5 (5th of 7 time points)",0
same,"PBMC Titers, group mean (Mean 2)","prophylactic, Row 6 (6th of 7 time points)",0.1283
same,"PBMC Titers, group mean (Mean 2)","prophylactic, Row 7 (7th of 7 time points)",0.3917
same,Viral titers,"therapeutic (d3) group, day 3",1.097 log10(TCID50/106 PBMCs) and 1.77 log10(TCID50/106 PBMCs)
same,Viral titers,"therapeutic (d3) group, day 7",0.7905 log10(TCID50/106 PBMCs) and 1.004 log10(TCID50/106 PBMCs) and 2.281 log10(TCID50/106 PBMCs) and 0 log10(TCID50/106 PBMCs)
same,Viral titers,"therapeutic (d3) group, day 10",1.35 log10(TCID50/106 PBMCs) and 0.8861 log10(TCID50/106 PBMCs) and 2.045 log10(TCID50/106 PBMCs)
same,Viral titers,"therapeutic (d3) group, day 14",0.7375 log10(TCID50/106 PBMCs)
same,"PBMC Titers, group mean (Mean 2)","therapeutic (d3), Row 1 (1st of 7 time points)",0
same,"PBMC Titers, group mean (Mean 2)","therapeutic (d3), Row 2 (2nd of 7 time points)",0.4783
same,"PBMC Titers, group mean (Mean 2)","therapeutic (d3), Row 3 (3rd of 7 time points)",0.6785
same,"PBMC Titers, group mean (Mean 2)","therapeutic (d3), Row 4 (4th of 7 time points)",0.7141
same,"PBMC Titers, group mean (Mean 2)","therapeutic (d3), Row 5 (5th of 7 time points)",0.1233
same,"PBMC Titers, group mean (Mean 2)","therapeutic (d3), Row 6 (6th of 7 time points)",0
same,"PBMC Titers, group mean (Mean 2)","therapeutic (d3), Row 7 (7th of 7 time points)",0
same,Viral titers,"therapeutic (d7) group, day 3",0.6162 log10(TCID50/106 PBMCs) and 0.7122 log10(TCID50/106 PBMCs) and 0.8794 log10(TCID50/106 PBMCs) and 0.6642 log10(TCID50/106 PBMCs) and 1.712 log10(TCID50/106 PBMCs)
same,Viral titers,"therapeutic (d7) group, day 7",2.108 log10(TCID50/106 PBMCs) (2×) and 1.9431 log10(TCID50/106 PBMCs) and 1.854 log10(TCID50/106 PBMCs) and 1.9914 log10(TCID50/106 PBMCs) and 1.699 log10(TCID50/106 PBMCs)
same,Viral titers,"therapeutic (d7) group, day 10",2.513 log10(TCID50/106 PBMCs) and 2.092 log10(TCID50/106 PBMCs) and 2.1549 log10(TCID50/106 PBMCs) and 2.936 log10(TCID50/106 PBMCs) and 2.626 log10(TCID50/106 PBMCs) and 2.438 log10(TCID50/106 PBMCs)
same,Viral titers,"therapeutic (d7) group, day 14",0.7959 log10(TCID50/106 PBMCs) and 0.3979 log10(TCID50/106 PBMCs) and 1.735 log10(TCID50/106 PBMCs)
same,Viral titers,"therapeutic (d7) group, day 17",1.174 log10(TCID50/106 PBMCs) and 0.6271 log10(TCID50/106 PBMCs)
same,"PBMC Titers, group mean (Mean 2)","therapeutic (d7), Row 1 (1st of 7 time points)",0
same,"PBMC Titers, group mean (Mean 2)","therapeutic (d7), Row 2 (2nd of 7 time points)",0.7636
same,"PBMC Titers, group mean (Mean 2)","therapeutic (d7), Row 3 (3rd of 7 time points)",1.95
same,"PBMC Titers, group mean (Mean 2)","therapeutic (d7), Row 4 (4th of 7 time points)",2.46
same,"PBMC Titers, group mean (Mean 2)","therapeutic (d7), Row 5 (5th of 7 time points)",0.49
same,"PBMC Titers, group mean (Mean 2)","therapeutic (d7), Row 6 (6th of 7 time points)",0.3
same,"PBMC Titers, group mean (Mean 2)","therapeutic (d7), Row 7 (7th of 7 time points)",0
same,effect on height of maximum virus load,"treatment initiated at day 7 post-infection, maximum on day 10",no significant effect on the height of maximum virus load
same,"PBMC Titers, Mean Diff, untreated vs. treated","untreated vs. prophylactic, Row 1 (1st of 7 time points)",0
same,"PBMC Titers, Mean Diff, untreated vs. treated","untreated vs. prophylactic, Row 2 (2nd of 7 time points)",0.1201
same,"PBMC Titers, Mean Diff, untreated vs. treated","untreated vs. prophylactic, Row 3 (3rd of 7 time points)",2.622
same,"PBMC Titers, Mean Diff, untreated vs. treated","untreated vs. prophylactic, Row 4 (4th of 7 time points)",1.541
same,"PBMC Titers, Mean Diff, untreated vs. treated","untreated vs. prophylactic, Row 5 (5th of 7 time points)",0.3677
same,"PBMC Titers, Mean Diff, untreated vs. treated","untreated vs. prophylactic, Row 6 (6th of 7 time points)",0.1017
same,"PBMC Titers, Mean Diff, untreated vs. treated","untreated vs. prophylactic, Row 7 (7th of 7 time points)",-0.3917
same,"PBMC Titers, Mean Diff, untreated vs. treated","untreated vs. therapeutic (d3), Row 1 (1st of 7 time points)",0
same,"PBMC Titers, Mean Diff, untreated vs. treated","untreated vs. therapeutic (d3), Row 2 (2nd of 7 time points)",-0.06733
same,"PBMC Titers, Mean Diff, untreated vs. treated","untreated vs. therapeutic (d3), Row 3 (3rd of 7 time points)",2.195
same,"PBMC Titers, Mean Diff, untreated vs. treated","untreated vs. therapeutic (d3), Row 4 (4th of 7 time points)",1.128
same,"PBMC Titers, Mean Diff, untreated vs. treated","untreated vs. therapeutic (d3), Row 5 (5th of 7 time points)",0.2444
same,"PBMC Titers, Mean Diff, untreated vs. treated","untreated vs. therapeutic (d3), Row 6 (6th of 7 time points)",0.23
same,"PBMC Titers, Mean Diff, untreated vs. treated","untreated vs. therapeutic (d3), Row 7 (7th of 7 time points)",0
same,"PBMC Titers, Mean Diff, untreated vs. treated","untreated vs. therapeutic (d7), Row 1 (1st of 7 time points)",0
same,"PBMC Titers, Mean Diff, untreated vs. treated","untreated vs. therapeutic (d7), Row 2 (2nd of 7 time points)",-0.3527
same,"PBMC Titers, Mean Diff, untreated vs. treated","untreated vs. therapeutic (d7), Row 3 (3rd of 7 time points)",0.9232
same,"PBMC Titers, Mean Diff, untreated vs. treated","untreated vs. therapeutic (d7), Row 4 (4th of 7 time points)",-0.6175
same,"PBMC Titers, Mean Diff, untreated vs. treated","untreated vs. therapeutic (d7), Row 5 (5th of 7 time points)",-0.1223
same,"PBMC Titers, Mean Diff, untreated vs. treated","untreated vs. therapeutic (d7), Row 6 (6th of 7 time points)",-0.06996
same,"PBMC Titers, Mean Diff, untreated vs. treated","untreated vs. therapeutic (d7), Row 7 (7th of 7 time points)",0
